This note sets out measurements from PubChem BioAssay AID256 (DTP/NCI, 2004).

Several values for one entry are separate records, joined by “and”; a condition that tells them apart may be missing. Equal values may be shown once. Inconclusive results and toxic doses are left out.

This assay has as its system CD2F1 mice, L1210 leukemia ip, survival T/C. Put plainly: NCI In Vivo Anticancer Drug Screen. Data for tumor model L1210 Leukemia (intraperitoneal) in CD2F1 (CDF1) mice. Particulars: higher = longer survival. A digest of the protocol:
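Ratio T/C, where T is the treated-group value and C the vehicle-dosed control value, from mice implanted with a transplantable tumor.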

Where [1] appears, read: endpoint: mean survival time, dose: 100.0 mg/kg/injection, schedule: Q01DX009 (ip), vehicle: saline with Tween-80.
[2] abbreviates: endpoint: mean survival time, dose: 100.0 mg/kg/injection, schedule: Q04DX002 (ip), vehicle: saline with Tween-80.
[3] abbreviates: endpoint: mean survival time, dose: 200.0 mg/kg/injection, schedule: Q01DX009 (ip), vehicle: saline with Tween-80.
[4] abbreviates: endpoint: mean survival time, dose: 400.0 mg/kg/injection, schedule: Q01DX009 (ip), vehicle: saline with Tween-80.
Setting [5] is: endpoint: mean survival time, dose: 100.0 mg/kg/injection, schedule: Q01DX001 (ip), vehicle: saline with Tween-80.
Setting [6] is: endpoint: mean survival time, dose: 200.0 mg/kg/injection, schedule: Q01DX001 (ip), vehicle: saline with Tween-80.
The mark [7] stands for this setting: endpoint: mean survival time, dose: 400.0 mg/kg/injection, schedule: Q01DX001 (ip), vehicle: saline with Tween-80.
Setting [8] is: endpoint: mean survival time, dose: 400.0 mg/kg/injection, schedule: Q04DX003 (ip), vehicle: saline with Tween-80.
Where [9] appears, read: endpoint: mean survival time, dose: 100.0 mg/kg/injection, schedule: Q04DX003 (ip), vehicle: saline with Tween-80.
Setting [10] is: endpoint: mean survival time, dose: 200.0 mg/kg/injection, schedule: Q04DX003 (ip), vehicle: saline with Tween-80.

On to `COc1cc([N+](=O)[O-])ccc1NC(=O)NCc1ccccc1`, for which the T/C runs as follows: (endpoint: mean survival time, dose: 50.0 mg/kg/injection, schedule: Q04DX002 (ip), vehicle: saline with Tween-80) 89 % of control and 94 % of control; under setting [1], 100 % of control; under setting [2], 88 % of control and 96 % of control and 97 % of control; under setting [3], 95 % of control; (endpoint: mean survival time, dose: 200.0 mg/kg/injection, schedule: Q04DX002 (ip), vehicle: saline with Tween-80) 93 % of control and 105 % of control; under setting [4], 103 % of control. For the setting “endpoint: mean survival time, dose: 400.0 mg/kg/injection, schedule: Q04DX002 (ip), vehicle: saline with Tween-80”, the T/C is 93 % of control.
In the case of `O=c1[nH]c2cnn(-c3ccccc3)c2[nH]1`, the T/C is 97 % of control under setting [5], 97 % of control under setting [6] and 93 % of control under setting [7].
As to `Cn1c(=O)c2[nH]cnc2n(C)c1=O` (tested in a mixture with another compound), the T/C by setting is: (endpoint: mean survival time, dose: 50.0 mg/kg/injection, schedule: Q01DX009 (ip), vehicle: saline sonified) 98 % of control; (endpoint: mean survival time, dose: 100.0 mg/kg/injection, schedule: Q01DX009 (ip), vehicle: saline sonified) 98 % of control; (endpoint: mean survival time, dose: 200.0 mg/kg/injection, schedule: Q01DX009 (ip), vehicle: saline sonified) 98 % of control.
As to `Cc1cc(C)c(S(=O)(=O)n2ccnc2)c(C)c1`, the T/C (endpoint: mean survival time, dose: 50.0 mg/kg/injection, schedule: Q01DX009 (ip), vehicle: Klucel (hydroxypropylcellulose) (HPC)) is 94 % of control; the T/C (endpoint: mean survival time, dose: 100.0 mg/kg/injection, schedule: Q01DX009 (ip), vehicle: Klucel (hydroxypropylcellulose) (HPC)) is 94 % of control; the T/C (endpoint: mean survival time, dose: 200.0 mg/kg/injection, schedule: Q01DX009 (ip), vehicle: Klucel (hydroxypropylcellulose) (HPC)) was 105 % of control.
Take `O=C(O)CCCCCCCCC1CC(F)(F)C(F)(F)S1` (stereo not given): the T/C was 98 % of control under setting [1], 92 % of control under setting [3] and 95 % of control under setting [4].
On to `CCCC(=O)Oc1ccc(/C=N/NC(N)=S)nc1`, for which the T/C runs as follows: under setting [1], 182 % of control; under setting [2], 115 % of control; (endpoint: mean survival time, dose: 178.0 mg/kg/injection, schedule: Q01DX001 (ip), vehicle: saline with Tween-80) 116 % of control; (endpoint: mean survival time, dose: 178.0 mg/kg/injection, schedule: Q04DX003 (ip), vehicle: saline with Tween-80) 118 % of control; under setting [3], 119 % of control; (endpoint: mean survival time, dose: 266.0 mg/kg/injection, schedule: Q01DX001 (ip), vehicle: saline with Tween-80) 113 % of control. The T/C (endpoint: mean survival time, dose: 266.0 mg/kg/injection, schedule: Q04DX003 (ip), vehicle: saline with Tween-80) is 121 % of control; the T/C under setting [7] is 95 % of control; the T/C under setting [8] was 117 % of control; the T/C (endpoint: mean survival time, dose: 600.0 mg/kg/injection, schedule: Q01DX001 (ip), vehicle: saline with Tween-80) is 124 % of control; the T/C (endpoint: mean survival time, dose: 900.0 mg/kg/injection, schedule: Q01DX001 (ip), vehicle: saline with Tween-80) is 161 % of control; the T/C (endpoint: median survival time, dose: 36.0 mg/kg/injection, schedule: Q01DX005 (ip), vehicle: saline with Tween-80) is 151 % of control. Moreover, the T/C by setting is: (endpoint: median survival time, dose: 50.0 mg/kg/injection, schedule: Q01DX009 (ip), vehicle: saline with Tween-80) 172 % of control; (endpoint: median survival time, dose: 60.0 mg/kg/injection, schedule: Q01DX005 (ip), vehicle: saline with Tween-80) 160 % of control; (endpoint: median survival time, dose: 100.0 mg/kg/injection, schedule: Q01DX005 (ip), vehicle: saline with Tween-80) 162 % of control; (endpoint: median survival time, dose: 100.0 mg/kg/injection, schedule: Q01DX009 (ip), vehicle: saline with Tween-80) 156 % of control and 247 % of control; (endpoint: median survival time, dose: 166.67 mg/kg/injection, schedule: Q01DX005 (ip), vehicle: saline with Tween-80) 112 % of control; (endpoint: median survival time, dose: 200.0 mg/kg/injection, schedule: Q01DX009 (ip), vehicle: saline with Tween-80) 164 % of control and 190 % of control. For the same compound, the T/C (endpoint: median survival time, dose: 400.0 mg/kg/injection, schedule: Q01DX009 (ip), vehicle: saline with Tween-80) is 113 % of control and 107 % of control.
On to `NC(=S)N/N=C\c1ncccc1OCc1cccc(N)c1`, for which the T/C reads like this: (endpoint: mean survival time, dose: 12.5 mg/kg/injection, schedule: Q01DX009 (ip), vehicle: distilled water + Tween-80) 104 % of control; (endpoint: mean survival time, dose: 12.5 mg/kg/injection, schedule: Q01DX009 (ip), vehicle: saline with Tween-80) 100 % of control; (endpoint: mean survival time, dose: 25.0 mg/kg/injection, schedule: Q01DX009 (ip), vehicle: distilled water + Tween-80) 113 % of control and 104 % of control; (endpoint: mean survival time, dose: 25.0 mg/kg/injection, schedule: Q01DX009 (ip), vehicle: saline with Tween-80) 116 % of control and 100 % of control and 107 % of control; (endpoint: mean survival time, dose: 50.0 mg/kg/injection, schedule: Q01DX009 (ip), vehicle: distilled water + Tween-80) 119 % of control and 111 % of control; (endpoint: mean survival time, dose: 50.0 mg/kg/injection, schedule: Q01DX009 (ip), vehicle: saline with Tween-80) 101 % of control and 103 % of control and 110 % of control. The T/C is 113 % of control and 119 % of control (endpoint: mean survival time, dose: 100.0 mg/kg/injection, schedule: Q01DX009 (ip), vehicle: distilled water + Tween-80); 117 % of control and 100 % of control and 105 % of control under setting [1]; 122 % of control (endpoint: mean survival time, dose: 200.0 mg/kg/injection, schedule: Q01DX009 (ip), vehicle: distilled water + Tween-80); 114 % of control and 117 % of control and 108 % of control under setting [3]; 117 % of control (endpoint: mean survival time, dose: 400.0 mg/kg/injection, schedule: Q01DX009 (ip), vehicle: distilled water + Tween-80); 115 % of control and 108 % of control under setting [4]. In addition, the T/C is, setting by setting: (endpoint: median survival time, dose: 50.0 mg/kg/injection, schedule: Q01DX009 (ip), vehicle: distilled water + Tween-80) 109 % of control; (endpoint: median survival time, dose: 100.0 mg/kg/injection, schedule: Q01DX009 (ip), vehicle: distilled water + Tween-80) 115 % of control; (endpoint: median survival time, dose: 200.0 mg/kg/injection, schedule: Q01DX009 (ip), vehicle: distilled water + Tween-80) 118 % of control; (endpoint: median survival time, dose: 400.0 mg/kg/injection, schedule: Q01DX009 (ip), vehicle: distilled water + Tween-80) 124 % of control.
Consider `O=C(O)/C=C/C(=O)O`, for which the T/C is 93 % of control and 88 % of control under setting [5]; 100 % of control under setting [9]; 94 % of control under setting [6]; 91 % of control under setting [7].
Take `CNC(=O)NCc1ccc(C(=O)NC(C)C)cc1`: the T/C is, setting by setting: (endpoint: mean survival time, dose: 50.0 mg/kg/injection, schedule: Q01DX009 (ip), vehicle: other) 100 % of control; (endpoint: mean survival time, dose: 100.0 mg/kg/injection, schedule: Q01DX009 (ip), vehicle: other) 101 % of control; (endpoint: mean survival time, dose: 200.0 mg/kg/injection, schedule: Q01DX009 (ip), vehicle: other) 100 % of control; (endpoint: mean survival time, dose: 400.0 mg/kg/injection, schedule: Q01DX009 (ip), vehicle: other) 89 % of control.
In the case of `NNC(=O)c1ccccc1Cl`, the T/C is, setting by setting: (endpoint: mean survival time, dose: 9.5 mg/kg/injection, schedule: Q01DX001 (ip), vehicle: other) 97 % of control; (endpoint: mean survival time, dose: 19.0 mg/kg/injection, schedule: Q01DX001 (ip), vehicle: other) 95 % of control; (endpoint: mean survival time, dose: 38.0 mg/kg/injection, schedule: Q01DX001 (ip), vehicle: other) 97 % of control.
For the compound `Cc1ccc(OCC(=O)C2CSc3ccc(Cl)cc32)cc1` (stereo not given), the T/C runs as follows: under setting [9], 97 % of control; under setting [10], 94 % of control; under setting [8], 111 % of control.
With `COc1ccc(N2CC=C(c3ccccc3)OP2(=O)N(CCCl)CCCl)cc1` (stereo not given), the T/C is 102 % of control (endpoint: mean survival time, dose: 31.25 mg/kg/injection, schedule: Q01DX001 (ip), vehicle: saline); 100 % of control (endpoint: mean survival time, dose: 62.5 mg/kg/injection, schedule: Q01DX001 (ip), vehicle: saline); 100 % of control (endpoint: mean survival time, dose: 125.0 mg/kg/injection, schedule: Q01DX001 (ip), vehicle: saline); 100 % of control (endpoint: mean survival time, dose: 250.0 mg/kg/injection, schedule: Q01DX001 (ip), vehicle: saline); 100 % of control (endpoint: mean survival time, dose: 500.0 mg/kg/injection, schedule: Q01DX001 (ip), vehicle: saline).
As for `CCCCOc1ccccc1NC(=O)CCl`, the T/C under setting [1] was 97 % of control, the T/C under setting [3] is 92 % of control and the T/C under setting [4] was 95 % of control.
`COc1ccc(Cl)cc1[N+](=O)[O-]`: the T/C was 97 % of control under setting [9], 94 % of control under setting [10] and 95 % of control under setting [8].
Regarding `CC1=CCC(O)(C(C)C)CC1` (stereo not given), the T/C reads like this: (endpoint: mean survival time, dose: 100.0 mg/kg/injection, schedule: Q04DX003 (ip), vehicle: saline) 96 % of control; (endpoint: mean survival time, dose: 200.0 mg/kg/injection, schedule: Q04DX003 (ip), vehicle: saline) 98 % of control; (endpoint: mean survival time, dose: 400.0 mg/kg/injection, schedule: Q04DX003 (ip), vehicle: saline) 102 % of control.
As to `O=C(c1ccc2ccccc2c1O)N1CCCCC1`, the T/C runs as follows: under setting [9], 101 % of control; under setting [10], 103 % of control; under setting [8], 101 % of control.
